In the test the target is ATM (Homo sapiens (Human), UniProt Q13315). The test is described as follows: ATM in Cell Western Assay (pKAP1 in etoposide-treated MCF-7 cells). It counts as cell-based. In a few lines: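 Cells received compounds in a 10-dose, 3-fold series from a 1 μM final top concentration, then 100 μM etoposide, for 1 hr at 37° C. They were then fixed with paraformaldehyde and permeabilized with 0.1% Triton X-100. After immunostaining, plates were scanned on an infrared imager.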

The mark [1] stands for this setting: MCF-7 cells, etoposide 100 μM, 1 hr, pKAP1 readout.
Setting [2] is: pKAP1 in etoposide-treated MCF-7 cells.

IC50 data for 10 compounds are collected here from patent US12187742B2 (XRAD Therapeutics, Inc., priority 2018, dated 2025).

Structures are written as SMILES. Counter-ions that a name gives are not always drawn. Bounds are passed on as bounds.

ATM, sequence (Q13315 whole entry): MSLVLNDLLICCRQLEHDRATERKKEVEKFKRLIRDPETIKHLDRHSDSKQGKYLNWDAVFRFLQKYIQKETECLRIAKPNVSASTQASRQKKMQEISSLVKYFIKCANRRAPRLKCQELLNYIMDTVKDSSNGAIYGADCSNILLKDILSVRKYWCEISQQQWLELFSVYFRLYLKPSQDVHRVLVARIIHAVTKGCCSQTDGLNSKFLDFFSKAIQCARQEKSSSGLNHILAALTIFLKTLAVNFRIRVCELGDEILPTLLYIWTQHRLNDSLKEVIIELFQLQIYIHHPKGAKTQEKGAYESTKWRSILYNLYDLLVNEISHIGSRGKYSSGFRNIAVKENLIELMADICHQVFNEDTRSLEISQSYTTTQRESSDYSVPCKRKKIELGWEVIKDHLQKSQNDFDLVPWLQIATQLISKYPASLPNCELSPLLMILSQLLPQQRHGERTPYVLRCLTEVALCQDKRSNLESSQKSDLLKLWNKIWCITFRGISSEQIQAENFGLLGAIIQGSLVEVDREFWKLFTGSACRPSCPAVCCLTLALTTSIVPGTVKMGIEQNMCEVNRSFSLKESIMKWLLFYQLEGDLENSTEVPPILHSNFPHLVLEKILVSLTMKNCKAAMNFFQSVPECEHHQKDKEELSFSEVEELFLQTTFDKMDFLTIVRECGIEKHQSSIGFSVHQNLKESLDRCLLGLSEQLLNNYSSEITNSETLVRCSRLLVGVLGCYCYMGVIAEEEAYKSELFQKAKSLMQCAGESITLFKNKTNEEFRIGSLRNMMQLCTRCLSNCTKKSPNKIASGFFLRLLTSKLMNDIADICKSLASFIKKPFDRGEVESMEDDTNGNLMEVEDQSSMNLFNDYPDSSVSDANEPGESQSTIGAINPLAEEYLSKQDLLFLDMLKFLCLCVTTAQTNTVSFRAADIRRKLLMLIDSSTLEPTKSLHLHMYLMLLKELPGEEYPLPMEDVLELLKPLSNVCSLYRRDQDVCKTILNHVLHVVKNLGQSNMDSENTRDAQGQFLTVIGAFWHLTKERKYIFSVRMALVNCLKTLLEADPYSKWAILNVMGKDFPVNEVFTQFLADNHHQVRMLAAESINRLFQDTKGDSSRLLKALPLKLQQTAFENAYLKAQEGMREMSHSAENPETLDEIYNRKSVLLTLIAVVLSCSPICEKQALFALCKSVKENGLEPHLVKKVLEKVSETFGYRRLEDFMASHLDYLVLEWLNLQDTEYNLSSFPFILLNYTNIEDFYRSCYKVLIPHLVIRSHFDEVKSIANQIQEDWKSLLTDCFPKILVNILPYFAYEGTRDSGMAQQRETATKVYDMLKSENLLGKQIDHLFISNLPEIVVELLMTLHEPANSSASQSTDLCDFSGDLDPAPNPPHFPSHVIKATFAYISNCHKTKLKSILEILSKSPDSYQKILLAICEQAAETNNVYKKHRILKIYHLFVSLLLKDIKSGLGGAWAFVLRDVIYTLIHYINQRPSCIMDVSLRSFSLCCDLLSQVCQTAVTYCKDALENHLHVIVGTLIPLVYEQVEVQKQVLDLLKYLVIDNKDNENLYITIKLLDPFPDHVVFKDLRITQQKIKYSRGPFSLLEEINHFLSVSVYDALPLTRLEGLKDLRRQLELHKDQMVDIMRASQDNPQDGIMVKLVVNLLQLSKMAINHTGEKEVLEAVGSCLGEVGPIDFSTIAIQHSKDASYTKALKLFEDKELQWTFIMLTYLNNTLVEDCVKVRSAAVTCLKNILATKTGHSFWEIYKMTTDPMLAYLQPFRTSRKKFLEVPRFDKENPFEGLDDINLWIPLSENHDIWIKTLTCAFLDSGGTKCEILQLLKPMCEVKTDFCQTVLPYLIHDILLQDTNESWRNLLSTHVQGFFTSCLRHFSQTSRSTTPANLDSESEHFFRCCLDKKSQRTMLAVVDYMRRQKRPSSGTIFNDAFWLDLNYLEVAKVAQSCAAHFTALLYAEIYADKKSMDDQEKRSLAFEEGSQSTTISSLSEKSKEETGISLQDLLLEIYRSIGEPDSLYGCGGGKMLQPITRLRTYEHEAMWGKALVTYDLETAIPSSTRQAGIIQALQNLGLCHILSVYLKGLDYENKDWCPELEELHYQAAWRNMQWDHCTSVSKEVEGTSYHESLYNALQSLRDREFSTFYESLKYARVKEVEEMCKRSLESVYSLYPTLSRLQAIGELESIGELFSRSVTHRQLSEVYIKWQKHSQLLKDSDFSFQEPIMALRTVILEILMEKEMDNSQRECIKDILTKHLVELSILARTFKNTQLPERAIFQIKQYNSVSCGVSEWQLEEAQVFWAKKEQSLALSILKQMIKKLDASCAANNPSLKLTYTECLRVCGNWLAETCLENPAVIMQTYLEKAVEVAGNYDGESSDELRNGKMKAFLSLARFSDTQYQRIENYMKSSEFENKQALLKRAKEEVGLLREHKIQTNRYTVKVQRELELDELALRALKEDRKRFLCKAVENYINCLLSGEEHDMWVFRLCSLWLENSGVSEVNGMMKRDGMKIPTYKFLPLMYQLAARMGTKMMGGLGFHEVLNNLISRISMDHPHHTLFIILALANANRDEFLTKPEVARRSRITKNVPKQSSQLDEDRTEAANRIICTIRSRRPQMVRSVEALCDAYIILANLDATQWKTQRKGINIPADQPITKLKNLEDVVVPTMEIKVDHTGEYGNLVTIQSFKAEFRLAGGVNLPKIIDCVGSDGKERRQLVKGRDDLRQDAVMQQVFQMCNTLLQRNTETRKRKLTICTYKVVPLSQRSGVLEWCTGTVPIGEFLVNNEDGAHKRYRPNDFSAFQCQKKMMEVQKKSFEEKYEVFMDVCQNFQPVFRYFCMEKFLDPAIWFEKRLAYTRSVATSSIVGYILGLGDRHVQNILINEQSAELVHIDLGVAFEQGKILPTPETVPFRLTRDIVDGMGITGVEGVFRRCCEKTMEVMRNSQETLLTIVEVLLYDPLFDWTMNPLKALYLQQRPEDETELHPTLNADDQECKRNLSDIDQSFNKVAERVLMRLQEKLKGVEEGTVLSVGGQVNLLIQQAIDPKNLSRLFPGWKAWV

The term IC50 denotes the point on the concentration scale where inhibition reaches its midpoint. A higher IC50 goes with weaker potency in that assay. Under setting [1], `CN1C(=O)C2(CCC2)c2c1cnc1ccc(-c3cnc(OCCCN4CCCCC4)c(NS(=O)(=O)CF)c3)cc21` [Example 301, 1-Fluoro-N-(5-(3′-methyl-2′-oxo-2′,3′-dihydrospiro[cyclobutane-1,1′-pyrrolo[2,3-c]quinolin]-8-yl)-2-(3-(piperidin-1-yl)propoxy)pyridin-3-yl) methanesulfonamide] registered an IC50 of 1 to 100 nM.

Regarding `CN(C)CCCOc1ncc(-c2ccc3ncc4c(c3c2)C2(CC2)C(=O)N4C)cc1NS(=O)(=O)c1cccs1` [Example 120], the IC50 under setting [1] was 0.5 to 1 nM.

Consider `CCc1ncc(S(=O)(=O)Nc2cc(-c3ccc4ncc5c(c4c3)C3(CCC3)C(=O)N5C)cnc2OCCNC)s1` [Example 275, 2-Ethyl-N-(5-(3′-methyl-2′-oxo-2′,3′-dihydrospiro[cyclobutane-1,1′-pyrrolo[2,3-c]quinolin]-8′-yl)-2-(2-(methylamino)ethoxy)pyridin-3-yl)thiazole-5-sulfonamide], for which the IC50 under setting [1] lay within 1 to 100 nM.

For `CN1C(=O)C2(CCC2)c2c1cnc1cc(F)c(-c3cnc(N4CC(N(C)C)C4)c(NS(=O)(=O)CC#N)c3)cc21` [Example 342, 1-Cyano-N-(2-(3-(dimethylamino)azetidin-1-yl)-5-(7′-fluoro-3′-methyl-2′-oxo-2′,3′-dihydrospiro [cyclobutane-1,1′-pyrrolo [2,3-c]quinolin]-8′-yl)pyridin-3-yl)methanesulfonamide hydrochloride], the IC50 under setting [2] was more than 100 nM.

In turn, `CC(C)NCCOc1ncc(-c2cc3c4c(cnc3cc2F)N(C)C(=O)C42CCC2)cc1NS(=O)(=O)N1CC(C#N)C1` [Example 372, 3-Cyano-N-(5-(7′-fluoro-3′-methyl-2′-oxo-2′,3′-dihydrospiro[cyclobutane-1,1′-pyrrolo[2,3-c]quinolin]-8′-yl)-2-(2-(isopropylamino)ethoxy)pyridin-3-yl)azetidine-1-sulfonamide] came in with an IC50 under setting [2] of more than 100 nM.

Compound `CC(C)NCCOc1ncc(-c2cc3c4c(cnc3cc2F)N(C)C(=O)C42CN(C3CCNCC3)C2)cc1NS(C)(=O)=O` [Example 501, N-(5-(7′-Fluoro-3′-methyl-2′-oxo-1-(piperidin-4-yl)-2′,3′-dihydrospiro[azetidine-3,1′-pyrrolo[2,3-c]quinolin]-8′-yl)-2-(2-(isopropylamino)ethoxy)pyridin-3-yl)methanesulfonamide] registered an IC50 under setting [2] of more than 100 nM.

Turning to `CN1C(=O)C2(CCC2)c2c1cnc1ccc(-c3cnc(N4CCS(=N)(=O)CC4)c(NS(=O)(=O)c4ccccc4)c3)cc21` (racemic) [Example 138, rac-N-(2-(1-Imino-1-oxido-1λ^6-thiomorpholino)-5-(3′-methyl-2′-oxo-2′,3′-dihydrospiro[cyclobutane-1,1′-pyrrolo[2,3-c]quinolin]-8′-yl)pyridin-3-yl)benzenesulfonamide hydrochloride], under setting [1], the IC50 is more than 100 nM.

`COc1ncc(-c2ccc3ncc4c(c3c2)C2(CC2)C(=O)N4C)cc1C(C)(C)O` [Example 26, 8′-(5-(2-Hydroxypropan-2-yl)-6-methoxypyridin-3-yl)-3′-methylspiro [cyclopropane-1,1′-pyrrolo[2,3-c]quinolin]-2′(3′-H)-one]: the IC50 under setting [1] is more than 100 nM.

Turning to `CCOC[C@H]1C[C@@]2(C1)C(=O)N(C)c1cnc3cc(F)c(-c4cnc(OCCNC(C)C)c(NS(C)(=O)=O)c4)cc3c12` [Example 407, trans-N-(5-(3-(Ethoxymethyl)-7′-fluoro-3′-methyl-2′-oxo-2′,3′-dihydrospiro[cyclobutane-1,1′-pyrrolo[2,3-c]quinolin]-8′-yl)-2-(2-(isopropylamino)ethoxy)pyridin-3-yl)methanesulfonamide], the IC50 under setting [2] was in the range of 1 to 100 nM.

Regarding `CC(C)NCCOc1ncc(-c2cc3c4c(cnc3cc2F)N(C)C(=O)C42CN(C)C2)cc1NS(C)(=O)=O` [Example 481, N-(5-(7′-Fluoro-1,3′-dimethyl-2′-oxo-2′,3′-dihydrospiro[azetidine-3,1′-pyrrolo[2,3-c]quinolin]-8′-yl)-2-(2-(isopropylamino)ethoxy)pyridin-3-yl)methanesulfonamide hydrochloride], the concentration for half-maximal inhibition (IC50) under setting [2] lay in the range of 1 to 100 nM.
